Test results from the supplement of paper PMC10307832.

Columns and labels:
Assay in all cases: relative viability (nuclei count vs DMSO), 5 days (fraction); higher = more cells survive
AGI-6780 + Bortezomib = compound: O=C(Nc1cccc(C(F)(F)F)c1)Nc1cc(S(=O)(=O)NC2CC2)ccc1-c1ccsc1 [AGI-6780] + CC(C)C[C@H](NC(=O)[C@H](Cc1ccccc1)NC(=O)c1cnccn1)B(O)O [Bortezomib] (partner 0.002 µM)
Procedure, shortened: (§1)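 Nuclei were stained with Hoechst during a one-step fixation (final 0.05% Triton X-100, 1% formaldehyde, 1 ug/ml Hoechst) carried out 5 days after dosing, then counted on 4× images. The cells, lung cancer lines in 1536-well plates, had been dosed by pin tool the day after seeding with one drug alone or a fixed anchor-drug dose plus five library-drug doses (not always all listed) in √10 steps. Relative viability is the nuclei count in treated wells divided by that in vehicle wells, and each value is the median of duplicate plates.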

AGI-6780 + Luminespib = compound: O=C(Nc1cccc(C(F)(F)F)c1)Nc1cc(S(=O)(=O)NC2CC2)ccc1-c1ccsc1 [AGI-6780] + CCNC(=O)c1noc(-c2cc(C(C)C)c(O)cc2O)c1-c1ccc(CN2CCOCC2)cc1 [Luminespib] (partner 0.01 µM)
Procedure, shortened: as §1

AGI-6780 + Dasatinib = compound: O=C(Nc1cccc(C(F)(F)F)c1)Nc1cc(S(=O)(=O)NC2CC2)ccc1-c1ccsc1 [AGI-6780] + Cc1nc(Nc2ncc(C(=O)Nc3c(C)cccc3Cl)s2)cc(N2CCN(CCO)CC2)n1 [Dasatinib] (partner 0.075 µM)
Procedure, shortened: as §1

AGI-6780 + Palbociclib = compound: O=C(Nc1cccc(C(F)(F)F)c1)Nc1cc(S(=O)(=O)NC2CC2)ccc1-c1ccsc1 [AGI-6780] + CC(=O)c1c(C)c2cnc(Nc3ccc(N4CCNCC4)cn3)nc2n(C2CCCC2)c1=O [Palbociclib] (partner 0.5 µM)
Procedure, shortened: as §1

Cell Line	relative viability (AGI-6780 + Bortezomib; first compound 0.08 µM)	relative viability (AGI-6780 + Bortezomib; first compound 0.253 µM)	relative viability (AGI-6780 + Bortezomib; first compound 0.8 µM)	relative viability (AGI-6780 + Bortezomib; first compound 2.53 µM)	relative viability (AGI-6780 + Bortezomib; first compound 8 µM)	relative viability (AGI-6780 + Luminespib; first compound 0.08 µM)	relative viability (AGI-6780 + Luminespib; first compound 0.253 µM)	relative viability (AGI-6780 + Luminespib; first compound 0.8 µM)	relative viability (AGI-6780 + Luminespib; first compound 2.53 µM)	relative viability (AGI-6780 + Luminespib; first compound 8 µM)	relative viability (AGI-6780 + Dasatinib; first compound 0.08 µM)	relative viability (AGI-6780 + Dasatinib; first compound 0.253 µM)	relative viability (AGI-6780 + Dasatinib; first compound 0.8 µM)	relative viability (AGI-6780 + Dasatinib; first compound 2.53 µM)	relative viability (AGI-6780 + Dasatinib; first compound 8 µM)	relative viability (AGI-6780 + Palbociclib; first compound 0.08 µM)	relative viability (AGI-6780 + Palbociclib; first compound 0.253 µM)	relative viability (AGI-6780 + Palbociclib; first compound 0.8 µM)	relative viability (AGI-6780 + Palbociclib; first compound 2.53 µM)	relative viability (AGI-6780 + Palbociclib; first compound 8 µM)
NCI-H2009	1.03	1.04	0.969	1.07	1.12	1.01	1.04	0.994	0.988	0.946	0.27	0.309	0.258	0.312	0.32	0.198	0.158	0.262	0.194	0.236
201T	1.11	0.981	1.02	1.1	1.1	1.09	1.04	1.06	0.988	1.08	0.613	0.53	0.564	0.476	0.6	0.359	0.367	0.353	0.329	0.344
NCI-H1651	0.831	0.988	1	0.893	0.957	0.809	0.893	0.919	0.744	0.804	0.361	0.534	0.528	0.341	0.544	0.522	0.538	0.534	0.466	0.547
LU99A	1.11	1.04	0.99	0.92	1.26	0.229	0.258	0.235	0.223	0.277	0.52	0.58	0.689	0.401	0.629	0.417	0.435	0.494	0.334	0.452
LC-2-ad	1.02	1.05	0.994	1.04	1.01	1	0.915	1.11	1.05	0.921	0.604	0.573	0.677	0.482	0.515	0.536	0.525	0.524	0.526	0.463
NCI-H1975	0.337	0.303	0.34	0.331	0.351	0.259	0.184	0.222	0.263	0.161	0.388	0.345	0.395	–	0.312	0.569	0.673	0.531	0.492	0.584
NCI-H322M	1.08	1.15	1.35	1.27	1.39	0.889	0.901	0.912	0.744	0.814	0.253	0.259	0.242	0.237	0.261	–	0.516	0.446	0.434	0.499
NCI-H1666	0.819	0.838	0.782	–	0.857	1.04	1.03	1.01	0.961	1.06	0.785	0.79	0.872	0.708	0.877	0.605	0.679	0.616	0.601	0.601
EKVX	1.12	1.07	1.05	0.697	0.958	0.916	0.877	0.989	0.918	0.847	0.583	0.467	0.598	0.6	0.619	0.411	0.368	0.368	0.352	0.406
NCI-H1355	1.23	1.28	1.21	1.02	1.24	0.75	0.791	0.686	0.408	0.624	0.771	0.712	0.771	0.518	0.776	0.432	0.409	0.408	0.354	0.342
PC-3 [JPC-3]	0.816	0.796	0.753	0.856	0.782	0.59	0.71	0.727	0.629	0.67	0.992	0.974	0.944	0.922	0.923	–	0.574	0.563	0.566	0.571
NCI-H650	0.835	0.926	0.882	0.751	0.961	0.673	0.874	0.865	0.793	0.946	0.459	0.528	0.443	0.399	0.426	0.34	0.3	0.258	0.333	0.334
UMC-11	0.671	0.712	1.06	–	1.04	1.16	1	1.22	–	1.11	0.474	0.524	0.662	–	0.488	0.34	0.324	0.334	–	0.336
NCI-H460	1.18	1.09	1.21	1.08	1.05	0.0337	0.0309	0.0296	0.0322	0.0345	0.495	0.583	0.468	0.444	0.541	0.145	0.211	0.144	0.136	0.15
NCI-H727	1.08	0.987	0.786	0.648	0.819	0.322	0.545	0.347	0.287	0.468	0.35	0.297	0.386	0.314	0.398	0.669	0.671	0.605	0.56	0.645
NCI-H1915	1.02	1	0.912	0.955	0.972	0.781	0.894	0.879	0.698	0.836	0.358	0.333	0.344	0.249	0.304	0.525	0.506	0.518	0.46	0.524
ChaGo-K-1	0.772	1.02	1.08	1.01	0.932	0.573	0.467	0.64	0.497	0.76	0.612	0.543	0.576	0.524	0.642	0.951	0.968	0.921	0.921	0.898
NCI-H1437	0.562	0.569	0.703	0.563	0.747	1.21	1.06	1.17	1.22	1.1	0.371	0.493	0.404	0.306	0.342	0.296	0.365	0.25	0.347	0.322
CAL-12T	–	1.05	0.944	1.31	1.06	0.245	0.58	0.644	0.476	0.402	0.549	0.501	0.676	0.4	0.487	0.407	0.465	0.651	0.46	0.367
NCI-H2405	0.972	0.978	0.925	0.798	1.01	0.686	0.718	0.5	0.515	0.65	0.217	0.205	0.188	0.194	0.203	–	0.532	0.45	0.47	0.526
LOU-NH91	0.475	0.597	0.472	0.605	0.512	0.411	0.337	0.436	0.328	0.305	0.533	0.516	0.553	0.531	0.558	0.529	0.528	0.521	0.515	0.55
EPLC-272H	0.905	1.03	0.901	0.766	1.03	–	0.359	0.267	0.166	0.244	–	0.423	0.292	0.285	0.365	0.318	0.356	0.318	0.337	0.329
NCI-H1993	1.09	1.13	1.25	0.764	1.12	0.747	0.913	0.705	0.642	0.857	0.661	0.724	0.713	0.485	0.549	0.693	0.649	0.78	–	0.609
BEN	0.657	0.813	0.852	–	0.754	0.355	0.331	0.37	0.33	0.358	0.219	0.348	0.291	0.3	0.377	0.488	0.429	0.457	–	0.502
NCI-H1734	1.08	0.968	1.03	–	0.935	0.216	0.233	0.201	0.19	0.177	0.459	0.461	0.473	0.347	0.435	0.371	0.379	0.297	0.285	0.352
NCI-H2347	0.557	0.947	0.858	1.23	1.19	0.456	0.659	0.405	0.411	0.403	0.323	0.342	0.276	0.307	0.317	0.451	0.469	0.413	0.385	0.481
NCI-H647	1	1.01	0.735	1.05	1.41	0.0935	0.181	0.12	0.103	0.118	0.186	0.202	0.23	0.175	0.448	0.416	0.36	0.48	0.332	0.422
